Results from US12264170B2, “Antimicrobial organosilanes” (TOPIKOS SCIENTIFIC, INC., priority 2019, dated 2025).
Values after ≈ are worked out from the molar mass of the structure shown. Values joined by “and” are separate entries in the source; they are usually repeats but may differ in a detail not shown here. Equal values may be shown once.

Key:
[1] = test system: Staphylococcus aureus ATCC 33591; assay: MIC microdilution assay; type: cell-based; conditions: S. aureus ATCC 33591; CAMHB; 35±2° C. 18 to 20 hours; two values given
Experimental: (§1) Strain numbers starting with “ATCC” were acquired from the American Type Culture Collection (Manassas, VA), while strain numbers starting with “CDC” were acquired from the Centers for Disease Control and Prevention (Atlanta, GA). All strains were maintained as −80° C. frozen glycerol stocks. S. aureus and P. aeruginosa were grown overnight on Tryptic Soy Agar (TSA) plates at 35±2° C., ambient atmosphere, while S. pyogenes was grown overnight on TSA+5% defibrinated sheep blood at 35±2° C., 5% CO2. All fungal species (i.e. C. albicans, C. auris and C. herbarum) were grown on Sabouraud Dextrose Agar (SDA) plates. C. herbarum was grown at 25±2° C. for 5 to 7 days, while all other fungal strains were grown at 35±2° C. overnight.
(§2) Test articles Compound 2 (batch #2G13A0.368) and Compound 23 (batch #2G17A0.372) were received and stored at 4° C. The antibiotic Tobramycin and antifungal Amphotericin B were used as quality control (QC) compounds for the MIC assay. Stock solutions of 3.2 mg/mL Tobramycin (Sigma-Aldrich, cat #T1783-500MG) and 3.2 mg/mL Amphotericin B (CP Lab Chemicals, cat #TOK-A007-1G) were prepared in sterile ultrapure water.
(§3) For bacteria strains, a few colonies of each strain were collected with a sterile swab and used to make a McFarland 0.5 standard solution (approximately 1×10^8 CFU/mL) in sterile PBS. The McFarland was then diluted 1:180 in Cation Adjusted Muller-Hinton Broth (CAMHB) for S. aureus and P. aeruginosa, and in […]+5% defibrinated sheep blood for S. pyogenes. 90 μL of this inoculum was combined with 10 μL of the 10× test article in a 96-well plate for a final concentration of 1×.
(§4) All bacterial-strain MIC 96-well plates were incubated at 35±2° C. for 18 to 20 hours, while all Candida MIC 96-well plates were incubated at 35±2° C. for 24 to 48 hours. C. herbarum MIC 96-well plates were incubated at 25±2° C. for 3 to 5 days, until growth was visible in the growth control wells. After incubation, the 96-well plates were examined visually and on a spectrophotometer at absorbance OD650. […]

[2] = test system: Candida albicans ATCC 90028; assay: MIC microdilution assay (Example 32); type: cell-based; conditions: C. albicans ATCC 90028 (quality control); RPMI media; 35±2° C. 24 to 48 hours; two values given
Experimental: (§5) Strain IDs starting with “ATCC” were acquired from the American Type Culture Collection (Manassas, VA), strain IDs starting with “Eurofins” were acquired from Eurofins (Herndon, VA), while strain IDs starting with “CDC” were acquired from the Centers for Disease Control and Prevention (Atlanta, GA). All strains were maintained as −80° C. frozen glycerol stocks. S. aureus and P. aeruginosa were grown overnight on Tryptic Soy Agar (TSA) plates at 35±2° C., ambient atmosphere, while S. pyogenes was grown overnight on TSA+5% defibrinated sheep blood at 35±2° C., 5% CO2. C. jejuni was grown for 48 hours on TSA+5% defibrinated sheep blood at 35±2° C., in a microaerophilic environment generated by CampyGen sachet. All fungal species (i.e. C. albicans and C. auris) were grown overnight on Sabouraud Dextrose Agar (SDA) plates at 35±2° C., ambient atmosphere.
(§6) Test article Compound 1 (batch #7G30A9.203) was stored at 4° C. The antibiotic Tobramycin and antifungal Amphotericin B were used as quality control (QC) compounds for the MIC assay. Stock solutions of 3.2 mg/mL Tobramycin (Sigma-Aldrich, cat #T1783-500MG) and 3.2 mg/mL Amphotericin B (CP Lab Chemicals, cat #TOK-A007-1G) were prepared in sterile ultrapure water.
(§7) For bacteria strains, a few colonies of each strain were collected with a sterile swab and used to make a McFarland 0.5 standard solution (approximately 1×10^8 CFU/mL) in sterile PBS. The McFarland was then diluted 1:180 in Cation Adjusted Muller-Hinton Broth (CAMHB) for S. aureus and P. aeruginosa. S. pyogenes McFarland was diluted 1:180 in CAMHB+5% defibrinated sheep blood, while C. jejuni McFarland was diluted 1:180 in CAMHB+5% laked horse blood. 90 μL of this inoculum was combined with 10 μL of the 10× test article in a 96-well plate for a final concentration of 1×.
(§8) For the yeasts C. albicans and C. auris, a McFarland 0.5 standard solution in sterile PBS was similarly prepared (approximately 1×10^6 CFU/mL) and was subsequently diluted 1:180 in RPMI 1640 media buffered with 0.165 M MOPS at pH 7.0 (herein referred to as “RPMI media”). 90 μL of the Candida inoculum was combined with 10 μL of the 10× test article in a 96-well plate for a final concentration of 1×.
(§9) Except for C. jejuni, all bacterial-strain MIC 96-well plates were incubated at 35±2° C. for 18 to 20 hours, ambient atmosphere. C. jejuni was incubated at 35±2° C. for 48 hours, under microaerophilic condition. All Candida MIC 96-well plates were incubated at 35±2° C. for 24 to 48 hours, ambient atmosphere, until growth in control wells were observed. After incubation, the 96-well plates were examined visually and on a spectrophotometer at absorbance OD650. MIC is defined as the lowest concentration of a compound in which no visible growth is observed.

Candida auris CDC 0385 = assay: MIC microdilution assay (Example 32); type: cell-based; conditions: C. auris CDC 0385; RPMI media; 35±2° C. 24 to 48 hours; two values given
Experimental: as §5, §6, §7, §8, §9

P. aeruginosa ATCC 27853 [3] = assay: MIC microdilution assay; type: cell-based, Pseudomonas aeruginosa; conditions: CAMHB, 35±2° C. 18 to 20 hours, two values given
Experimental: as §1, §2, §3, §4

[4] = test system: Pseudomonas aeruginosa CDC 0248; assay: MIC microdilution assay (Example 32); type: cell-based; conditions: P. aeruginosa CDC 0248; CAMHB; 35±2° C. 18 to 20 hours; two values given
Experimental: as §5, §6, §7, §9

[5] = test system: Pseudomonas aeruginosa Eurofins 1674623; assay: MIC microdilution assay (Example 32); type: cell-based; conditions: P. aeruginosa Eurofins 1674623; CAMHB; 35±2° C. 18 to 20 hours; two values given
Experimental: as §5, §6, §7, §9

[6] = test system: Acinetobacter baumannii Eurofins 1674627; assay: MIC microdilution assay (Example 32); type: cell-based; conditions: A. baumannii Eurofins 1674627; 35±2° C. 18 to 20 hours; two values given
Experimental: as §5, §6, §7, §9

[7] = test system: Streptococcus pyogenes Eurofins 2065755; assay: MIC microdilution assay (Example 32); type: cell-based; conditions: S. pyogenes Eurofins 2065755; CAMHB+5% defibrinated sheep blood; 35±2° C. 18 to 20 hours; two values given
Experimental: as §5, §6, §7, §9

[8] = test system: Campylobacter jejuni CDC 0413; assay: MIC microdilution assay (Example 32); type: cell-based; conditions: C. jejuni CDC 0413; CAMHB+5% laked horse blood; 35±2° C. 48 hours, microaerophilic; two values given
Experimental: as §5, §6, §7, §9

[9] = test system: Pseudomonas aeruginosa ATCC 27853; assay: MIC microdilution assay (Example 32); type: cell-based; conditions: P. aeruginosa ATCC 27853 (quality control); CAMHB; 35±2° C. 18 to 20 hours; two values given
Experimental: as §5, §6, §7, §9

[10] = test system: Candida albicans ATCC 90028; assay: MIC microdilution assay; type: cell-based; conditions: C. albicans ATCC 90028; RPMI media; 35±2° C. 24 to 48 hours; two values given
Experimental: as §1, §2, §3, §8
(§10) All bacterial-strain MIC 96-well plates were incubated at 35±2° C. for 18 to 20 hours, while all Candida MIC 96-well plates were incubated at 35±2° C. for 24 to 48 hours. C. herbarum MIC 96-well plates were incubated at 25±2° C. for 3 to 5 days, until growth was visible in the growth control wells. After incubation, the 96-well plates were examined visually and on a spectrophotometer at absorbance OD650. MIC is defined as the lowest concentration of a compound in which no visible growth is observed.

Candida auris CDC 0381 [11] = assay: MIC microdilution assay; type: cell-based; conditions: C. auris CDC 0381; RPMI media; 35±2° C. 24 to 48 hours; two values given
Experimental: as §1, §2, §3, §8, §10

S. pyogenes ATCC 51339 [12] = assay: MIC microdilution assay; type: cell-based, Steptococcus pyogenes; conditions: S. pyogenes ATCC 51339; broth +5% defibrinated sheep blood; 35±2° C. 18 to 20 hours; two values given
Experimental: as §1, §2, §3, §4

[13] = test system: Cladosporium herbarum ATCC MYA-4682; assay: MIC microdilution assay; type: cell-based; conditions: C. herbarum ATCC MYA-4682; RPMI media; 25±2° C. 3 to 5 days; two values given
Experimental: as §1
Test articles Compound 2 (batch #2G13A0.368) and Compound 23 (batch #2G17A0.372) were received and stored at 4° C. The antibiotic Tobramycin and antifungal Amphotericin B were used as quality control (QC) compounds for the MIC assay. […]
All bacterial-strain MIC 96-well plates were incubated at 35±2° C. for 18 to 20 hours, while all Candida MIC 96-well plates were incubated at 35±2° C. for 24 to 48 hours. […] After incubation, the 96-well plates were examined visually and on a spectrophotometer at absorbance OD650. […]

S. pyogenes ATCC 51339 [14] = assay: MBC/MFC determination; type: cell-based, Steptococcus pyogenes; conditions: plated after 18 to 20 hours incubation, two values given
Experimental: (§11) 10 μL of liquid from each test condition was plated on the appropriate agar media for each test strain. For bacteria strains, plating for MBC occurred after 18 to 20 hours incubation. For the Candida species, plating for MFC occurred after 48 hours incubation, while C. herbarum plating for MFC occurred 3 days after incubation when growth in growth control wells was visually observed. Once the liquid from the 96-well plate has been allowed to air dry in a biosafety cabinet, the agar plates were incubated under the appropriate conditions and colony formation was assessed. MBC/MFC is defined as the lowest concentration of a compound in which no colonies were recovered.

[15] = test system: Candida albicans ATCC 90028; assay: MBC/MFC determination; type: cell-based; conditions: C. albicans ATCC 90028; plated after 48 hours incubation; two values given
Experimental: as §11

[16] = test system: Cladosporium herbarum ATCC MYA-4682; assay: MBC/MFC determination; type: cell-based; conditions: C. herbarum ATCC MYA-4682; plated 3 days after incubation; two values given
Experimental: as §11

Candida auris CDC 0381 [17] = assay: MBC/MFC determination; type: cell-based; conditions: C. auris CDC 0381; plated after 48 hours incubation; two values given
Experimental: as §11

P. aeruginosa ATCC 27853 [18] = assay: MBC/MFC determination; type: cell-based, Pseudomonas aeruginosa; conditions: plated after 18 to 20 hours incubation, two values given
Experimental: as §11

pH of aqueous solution = type: physicochemical; conditions: 2% solution in water
[19] = Dissolution of isolated product in water; type: physicochemical; conditions: observation

SMILES: C[C@@H]1[C@H](O)[C@@H](C)/C=C/C=C/C=C/C=C/C=C/C=C/C=C/[C@H](O[C@@H]2O[C@H](C)[C@@H](O)[C@H](N)[C@@H]2O)C[C@@H]2O[C@](O)(C[C@@H](O)C[C@@H](O)[C@H](O)CC[C@@H](O)C[C@@H](O)CC(=O)O[C@H]1C)C[C@H](O)[C@H]2C(=O)O [Amphotericin B]
- MIC [1]: >32 µg/mL
- MIC [2]: 1 µg/mL (≈ 1.08 µM)
- MIC (Candida auris CDC 0385): 4 µg/mL (≈ 4.33 µM)
- MIC (P. aeruginosa ATCC 27853 [3]): >32 µg/mL
- MIC [4]: >32 µg/mL
- MIC [5]: >32 µg/mL
- MIC [6]: >32 µg/mL
- MIC [7]: >32 µg/mL
- MIC [8]: >32 µg/mL
- MIC [9]: >32 µg/mL
- MIC [10]: 2 µg/mL (≈ 2.16 µM)
- MIC (Candida auris CDC 0381 [11]): 1 µg/mL (≈ 1.08 µM)
- MIC (S. pyogenes ATCC 51339 [12]): >32 µg/mL
- MIC [13]: ≤0.03 µg/mL

SMILES: CCCCCCCCCCCCCCCCCC[N+](C)(C)CCC[Si](OCC(CO)(CO)NCC(O)CS(=O)(=O)[O-])(OCC(CO)(CO)NCC(O)CS(=O)(=O)[O-])OCC(CO)(CO)NCC(O)CS(=O)(=O)O.[Cl-].[Na+].[Na+] (stereo not drawn) [Compound 2]
- MBC/MFC (S. pyogenes ATCC 51339 [14]): >64 µg/mL and 64 µg/mL
- MIC [1]: 1 µg/mL
- MIC (P. aeruginosa ATCC 27853 [3]): >64 µg/mL
- MBC/MFC [15]: 2 µg/mL and 1 µg/mL
- MBC/MFC [16]: 2 µg/mL
- MBC/MFC (Candida auris CDC 0381 [17]): 1 µg/mL
- MIC (Candida auris CDC 0381 [11]): 1 µg/mL
- MBC/MFC (P. aeruginosa ATCC 27853 [18]): >64 µg/mL

SMILES: CCCCCCCCCCCCCCCCCC[N+](C)(C)CCC[Si](OCC(CO)(CO)NCC(O)CS(=O)(=O)[O-])(OCC(CO)(CO)NCC(O)CS(=O)(=O)O)OCC(CO)(CO)NCC(O)CS(=O)(=O)O (stereo not drawn) [Example 24, monosodium mono(8-(3-(dimethyl(octadecyl)ammonio)propyl)-2,14-dihydroxy-8-(3-hydroxy-2-((2-hydroxy-3-sulfopropyl)amino)-2-(hydroxymethyl)propoxy)-5,5,11,11-tetrakis(hydroxymethyl)-7,9-dioxa-4,12-diaza-8-silapentadecane-1,15-disulfonate); chloride]
- pH of solution (pH of aqueous solution): 7.65
- dissolution in water [19]: readily dissolved in water
